Laboratory results taken from patent EP4700040A1, “PEPTIDE AND LUMINESCENT COMPLEX CONTAINING SAME” (Shenzhen Loggene Life Science & Technology Co., Ltd., priority 2023, dated 2024).

Legend:
Format in all cases: biochemical, human
PCT [1] = experiment: Signal-to-noise ratio and linear range for PCT detection, purified fusion proteins (Example 3); design: key: luminescence normalized against the background value; details: PCT 3.3 (pg/ml); normalized against the background value
PCT [2] = experiment: Complementation of purified rSCFV18-small subunit mutant fusion protein with large subunit-rSCFV5 fusion protein, PCT gradient (Example 2); details: for luminescence value: CTZ-h 25 µM, 20 s; for Signal-to-noise ratio at 1000 pg/ml: PCT 1000 pg/ml versus 0
Method: Protein expression and purification of small subunit mutants: The strains containing plasmids of different small subunits inTable 2, prepared in Example 1, were inoculated into 200ml of 2YTA medium and cultured at 37°C with shaking at 250 rpm for about 3h. When the OD600 reached 1.0, IPTG was added to a final concentration of 1mM, and the culture was further incubated at 30°C with shaking at 250rpm for 20h. The culture were centrifuged at 5,000g for 10min, and the precipitate was resuspended with 10ml of PBS, added with polymyxin B to 20,000u/ml. The suspension was inverted and mixed at room temperature for 1h, and centrifuged at 10,000g to collect the supernatant. The rSCFV18-small subunit mutant fusion protein was purified according to the standard procedure for his-tag protein purification using Ni-NTA resin.
In the same tube, the large subunit-rSCFV5 fusion protein was diluted with PBSA to 50 nM; rSCFV18-small subunit mutant fusion protein was diluted to 90 nM, mixed well, and then 22 µl was added per well; the MBP-PCT fusion protein was diluted in 3-fold gradient with PBSAD (in pg/ml), with 8 gradients in total, 10µl was added per well, and the background control was PBSAD and 10 µl was added per well; the plate was mixed with slight shaking and incubated at 37°C for 6 min, 50 µl of Obuffer 6.37-3 containing 25 µM of CTZ-h then was added, and after 20 s, the luminescence value was detected.

PCT [3] = experiment: Signal-to-noise ratio and linear range for PCT detection, purified fusion proteins (Example 3); design: key to luminescence value: luminescence normalized against the background value; details: for Signal-to-noise ratio at 1000 pg/ml: large subunit 100 nM, small subunit fusion 180 nM, CTZ-h 25 µM, 140 s
Method: Test Methods: • (1) MBP-PCT protein was diluted with PBSAD in 10-fold gradient starting from 100 ng/ml, with 8 gradients in total, and 10 µl was added per well; • (2) The large subunit-SCFV5 fusion protein was diluted with PBSA to 100 nM, and 10 µl was added per well; • (3) Different rSCFV18-small subunit mutant fusion proteins were diluted with PBSA to 180 nM, and 10 µl of each was added per well; • (4) The plate was mixed slightly and incubated at 37°C for 10 min; and • (5) 50 µl of Obuffer 6.37-3 containing 25 µM of CTZ-h was added, and after 140 s, the luminescence value was detected. The results are shown after normalization against the background value.

PCT [4] = experiment: Luciferase dual-antibody complementary activation assay for PCT detection, clone supernatants, retest with CTZ-h (Example 1); details: for Signal-to-noise ratio: RLU antigen+/RLU antigen-, MBP-PCT 3.3 ng/ml, CTZ-h; for PCT+: luminescence signal value with MBP-PCT 3.3 ng/ml, large subunit-rSCFV5 50 nM, supernatant; for PCT+ / PCT-: retest CTZ-h 25 µM, read after 60 s; for PCT-: luminescence signal value, background control PBSAD without PCT
Method: In order to improve the signal-to-noise ratio and complementary activity of the luciferase dual-antibody complementary activation assay, a series of complementary luciferase small subunits were prepared in this example. Large subunit-rSCFV5 fusion protein (SEQ ID NO: 87) was kept unchanged, and the small subunit sequence of the rSCFV18-small subunit P114 fusion protein (SEQ ID NO: 88) was modified by semi-randomization to prepare rSCFV18-small subunit mutant fusion proteins. Based on the sequence of small subunit P114, and with reference to the 3D structure of complementary luciferase, computer-aided sequence design was employed to generate a library with a theoretical diversity of 2.49*10^6. Primers were designed for PCR amplification using the plasmid pComb3x of rSCFV18-small subunit P114 fusion protein as a template. Subsequently, an expression vector library was constructed by means of restriction digestion and ligation (SfiI, NheI), and a semi-random amino acid mutation library was introduced into the small subunit position and transformed into HB2151 competent cells, yielding a library capacity of 7.6*10^9. The 100 plates were spread, and 9,500 single clones were picked and inoculated into 600 µL of 2YTA medium, followed by incubation at 37°C with shaking at 250 rpm for 2 h. When the bacterial density reached approximately OD600 = 0.6~1.0, IPTG was then added to a final concentration of 1 mM, and the culture was further incubated at 30°C with shaking at 250 rpm for 20 h. The next day, the bacteria were collected by centrifugation at 4°C, 4,500g for 10min. The supernatant was discarded, and the precipitate was resuspended with 200µl of PBS containing polymyxin B at a final concentration of 20,000 u/ml. The suspension was incubated at room temperature with shaking at 100rpm for 1h, and then centrifuged at 4500g for 10min, and the supernatant was used for the test.
Test Methods: • (1) The concentration of large subunit-rSCFV5 fusion protein was diluted to 50 nM, and 15 µl was added per well; • (2) MBP-PCT fusion protein was diluted to 3.3 ng/ml with PBSAD, and 15 µl was added per well. The background control was PBSAD, and 10 µl was added per well; • (3) HB2151 strain containing expression plasmids with different small subunit were induced by 1 mM of IPTG at 30°C overnight, then treated with polymyxin B for 1.5 h, and centrifuged to collect the supernatant, and 2.5 µl supernatant was added per well; • (4) The above three components were slightly mixed, incubated at 37°C for 7 min, and Obuffer 6.37-3 containing Furimazine at a concentration of 25 µM was added, and after 80 s, the luminescence signal value was detected using a bioluminescence detector; and • (5) Clones with RLU higher than 10,000 and a signal-to-noise ratio (RLU antigen+/RLU antigen-) higher than that of the rSCFV18-small subunit P114 fusion protein were selected for retesting. The substrate was replaced with CTZ-h for retesting. Obuffer 6.37-3 containing CTZ-h at a concentration of 25 µM was added, and after 60 s, the luminescence signal value was detected using a bioluminescence detector.

[5] = PCT 0 pg/ml (background control PBSAD)
[6] = PCT 1000 pg/ml, large subunit 50 nM, small subunit fusion 90 nM
[7] = PCT 100 (pg/ml), normalized against the background value
[8] = PCT 1000 (pg/ml), normalized against the background value
[9] = PCT 10000 (pg/ml), normalized against the background value
[10] = PCT 100000 (pg/ml), normalized against the background value

| Sequence | luminescence value (PCT [1]) | luminescence value (PCT [2]; [5]) | luminescence value (PCT [2]; PCT 1.37 pg/ml) | luminescence value (PCT [2]; PCT 4.12 pg/ml) | luminescence value (PCT [2]; PCT 12.35 pg/ml) | luminescence value (PCT [2]; PCT 37.04 pg/ml) | luminescence value (PCT [2]; PCT 111.1 pg/ml) | luminescence value (PCT [2]; PCT 333.3 pg/ml) | Signal-to-noise ratio at 1000 pg/ml (PCT [2]) | luminescence value (PCT [2]; [6]) | luminescence value (PCT [3]; PCT 0, background, normalized) | luminescence value (PCT [3]; [7]) | luminescence value (PCT [3]; [8]) | luminescence value (PCT [3]; [9]) | luminescence value (PCT [3]; [10]) | Signal-to-noise ratio at 1000 pg/ml (PCT [3]) | Signal-to-noise ratio (PCT [4]) | PCT+ (PCT [4]) | PCT- (PCT [4]) | signal-to-noise ratios in luciferase dual-antibody complementary activation for PCT detection (PCT [3]; statement in words on Table 3 and Figure 2) |
| --- | --- | --- | --- | --- | --- | --- | --- | --- | --- | --- | --- | --- | --- | --- | --- | --- | --- | --- | --- | --- |
| VEGYRLFDRKL [RB135] | 5698 | 380 | 367 | 422 | 575 | 943 | 2137 | 5480 | 40.0 | 15181 | 5000 | 11916 | 67860 | 536667 | 1936894 | 13.6 | 43.7 | 35245 | 788 | – |
| VEGYRLFEKVW [RB085] | 5486 | 337 | 384 | 445 | 556 | 932 | 2102 | 5551 | 45.8 | 15446 | 5000 | 11950 | 69595 | 554514 | 1830312 | 13.9 | 38.2 | 47227 | 1206 | higher signal-to-noise ratios |
